Source: patent US20080311047A1, “Multimetric Biosensors and Methods of Using Same” (priority 2005, published 2008)

Assays:
[1] = molecular target: T1, FLIPW-CTY (eCFP-TrpR-Venus) (Escherichia coli, UniProt P0A881); assay: In vitro FRET titration of FLIPW-CTY with tryptophan substrates; type: binding, E. coli; settings: for Kd: 20 mM MOPS pH 7.0, read-out: Affinity of FLIPW-CTY for tryptophan substrate
T1 construct: made in house; host or cells: E. coli BL21(DE3)gold
Protocol: (§1) In Vitro Characterization of FLIPW and FLIPpur Sensors: Purified sensor was added to a dilution series of ligand in 20 mM MOPS pH 7.0 (FLIPW) or 20 mM MES pH7.0 (FLIPpur) in the range of 10^−2 to 10^−6 M and analyzed in a monochromator microplate reader (Safire, Tecan, Austria; excitation 433/12 nm, emission 485/12 and 528/12 nm). Protein was diluted to give Venus/eYFP readouts of 20,000 to 30,000 at a manual gain between 70-75. By using the change in FRET ratio upon binding of ligand, binding constants (Kd) were determined by fitting the substrate titration curves to a single-site-binding isotherm. Formulas for decrease in ratio upon ligand binding:
(§2) R=Rmax−(n·[S])/(Kd+[S])·(Rmax−Rmin)
(§3) with [S], substrate concentration; n, number of equal binding sites; R, ratio; Rmax, maximum ratio in the absence of ligand; and Rmin, minimum ratio at saturation with ligand. Formula for increase in ratio upon ligand binding:
(§4) R=Rmin+(Rmax−Rmin)·(n·[S])/(Kd+[S])
(§5) with [S], substrate concentration; n, number of equal binding sites; R, ratio; Rmax, maximum ratio at saturation with ligand; and Rmin, minimum ratio in absence of ligand. Three independent protein preparations were analyzed and each protein preparation was analyzed in triplicate.

LAT2 = molecular target: T2, LAT2 (Homo sapiens, UniProt Q9UHI5); settings: LAT2 in Xenopus oocytes (Pineda et al. 1999); cited from earlier work
T2 construct: host or cells: Xenopus oocytes
T2 sequence (Q9UHI5 1-535): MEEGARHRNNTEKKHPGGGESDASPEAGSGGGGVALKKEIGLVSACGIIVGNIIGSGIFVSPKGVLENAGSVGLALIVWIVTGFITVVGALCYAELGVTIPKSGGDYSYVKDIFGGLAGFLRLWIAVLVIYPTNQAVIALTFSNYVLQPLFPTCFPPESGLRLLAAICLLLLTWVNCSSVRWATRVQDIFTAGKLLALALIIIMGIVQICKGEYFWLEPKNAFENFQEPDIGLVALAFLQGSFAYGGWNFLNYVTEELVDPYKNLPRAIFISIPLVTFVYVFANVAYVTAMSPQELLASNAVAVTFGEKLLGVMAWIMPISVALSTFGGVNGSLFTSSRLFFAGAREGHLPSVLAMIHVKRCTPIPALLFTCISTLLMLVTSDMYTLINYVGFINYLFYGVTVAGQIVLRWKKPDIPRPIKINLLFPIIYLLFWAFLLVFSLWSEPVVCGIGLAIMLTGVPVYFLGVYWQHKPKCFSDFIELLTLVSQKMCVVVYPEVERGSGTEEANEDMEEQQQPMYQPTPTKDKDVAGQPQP

human TAT1 = molecular target: T3, human TAT1 (Homo sapiens, UniProt Q8TF71); settings: human TAT1 in Xenopus oocytes (Kim et al. 2002); cited from earlier work
T3 construct: host or cells: Xenopus oocytes
T3 sequence (Q8TF71 1-515): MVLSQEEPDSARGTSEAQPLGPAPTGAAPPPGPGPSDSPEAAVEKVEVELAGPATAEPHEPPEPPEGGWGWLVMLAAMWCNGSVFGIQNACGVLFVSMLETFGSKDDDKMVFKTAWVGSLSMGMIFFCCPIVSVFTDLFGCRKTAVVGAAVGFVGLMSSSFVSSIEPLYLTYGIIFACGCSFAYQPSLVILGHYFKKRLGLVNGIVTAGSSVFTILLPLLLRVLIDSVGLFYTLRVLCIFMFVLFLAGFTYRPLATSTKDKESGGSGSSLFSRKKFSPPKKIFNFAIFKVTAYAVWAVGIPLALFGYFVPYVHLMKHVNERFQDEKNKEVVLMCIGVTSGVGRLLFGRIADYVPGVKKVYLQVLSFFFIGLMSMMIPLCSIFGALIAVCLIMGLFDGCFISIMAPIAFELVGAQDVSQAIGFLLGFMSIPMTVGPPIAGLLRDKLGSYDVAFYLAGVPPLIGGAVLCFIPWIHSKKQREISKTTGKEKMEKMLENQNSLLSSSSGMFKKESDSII

[2] = system: E. coli tryptophan operon repressor TrpR, wild-type, SEQ ID NO: 1; settings: Marmorstein et al. 1987; cited from earlier work
[3] = molecular target: T4, FLIPW-CTYT (eCFP-TrpR-Venus-TrpR) (Escherichia coli, UniProt P0A881); assay: In vitro FRET titration of FLIPW-CTYT with tryptophan substrates; type: binding, E. coli; settings: 20 mM MOPS pH 7.0; read-out: Affinity of FLIPW-CTYT for tryptophan substrate
T4 construct: The gene products of pTK203, pTK204, and pTK205 were denoted FLIPW-TCTY, FLIPW-CTYT, and FLIPW-CTTY, respectively; made in house; host or cells: E. coli BL21(DE3)gold
Protocol: as §1, §2, §3, §4, §5

[4] = molecular target: FLIPW-TCTY (TrpR-eCFP-TrpR-Venus fusion of E. coli tryptophan repressor TrpR, SEQ ID NO: 5) (Escherichia coli, UniProt P0A881); assay: L-tryptophan titration of FLIPW-TCTY by FRET ratio change; settings: 20 mM MOPS pH 7.0, apparent binding constant
COS-7 cells [5] = assay: tryptophan uptake by COS-7 cell cultures in 96-well microplates monitored with FLIPW-CTYT; type: cell-based, monkey; settings: in words
Protocol: (§6) Tissue Culture and Transfection: For cytosolic expression in COS-7 cells, the gene encoding CTYT was amplified by PCR with primers encoding unique BamHI and EcoRI restriction sites at the 5′ and 3′ end, respectively, and cloned into BamHI/EcoRI digested pcDNA3.1(+) vector (Invitrogen), resulting in plasmid pTK222. COS-7 cells were grown in Dulbecco's modified Eagle's medium (high glucose; DMEM, Gibco) with 10% fetal calf serum and 50 μg/ml penicillin and streptomycin (Gibco). Cells were cultured at 37° C. and 5% CO2. For imaging, cells were cultured in 8-well LabTekII German tissue culture glass slides (Nalg Nunc International) and transiently transfected at 50-70% confluence using Lipofectamine 2000 Reagent (Invitrogen) in Opti-MEM I reduced serum medium (Gibco). After transfection, cells were cultured for 16 hours in Opti-MEM followed by 3 hours in DMEM prior to imaging.
(§7) Microplate Assays: Adherent cells in 96-well microplates were washed once with 100 μl Tyrode's buffer (119 mM NaCl, 2.5 mM KCl, 2 mM CaCl2, 2 mM MgCl2, 25 mM HEPES, 30 mM glucose, pH 7.3-7.4).

[6] = molecular target: FLIPW-CTY (eCFP-TrpR-Venus fusion of E. coli tryptophan repressor TrpR, SEQ ID NO: 3) (Escherichia coli, UniProt P0A881); assay: L-tryptophan analog titration of FLIPW-CTY by FRET ratio change, single-site-binding isotherm; settings: FLIPW-CTY Kd compared with free TrpR (Marmorstein et al. 1987); larger than free TrpR
From the text: The protein sequence encoded on pTK164 was denoted FLIPW-CTY.

COS-7 cells [7] = settings: read-out: apparent KM for combined transport and metabolism
Protocol: as §6, §7

[8] = molecular target: T5, FLIPpur (His6-eCFP-PurR-eYFP fusion of E. coli purine repressor PurR, residues 56 to 341, Arg190Gln, Leu263Pro) (Escherichia coli, UniProt P0ACP7, L263P/R190Q); assay: hypoxanthine titration of FLIPpur by FRET ratio change; type: binding
T5 construct: expressed in E. coli BL21(DE3)gold, purified
From the text: FLIPW and FLIPpur constructs were harbored in E. coli BL21(DE3)gold and sensor proteins were produced and purified as described previously (Fehr et al. 2002).

[9] = system: E. coli purine repressor PurR variant Arg190Gln; settings: Lu et al. 1998; cited from earlier work

T5 sequence (P0ACP7 56-341 R190Q/L263P): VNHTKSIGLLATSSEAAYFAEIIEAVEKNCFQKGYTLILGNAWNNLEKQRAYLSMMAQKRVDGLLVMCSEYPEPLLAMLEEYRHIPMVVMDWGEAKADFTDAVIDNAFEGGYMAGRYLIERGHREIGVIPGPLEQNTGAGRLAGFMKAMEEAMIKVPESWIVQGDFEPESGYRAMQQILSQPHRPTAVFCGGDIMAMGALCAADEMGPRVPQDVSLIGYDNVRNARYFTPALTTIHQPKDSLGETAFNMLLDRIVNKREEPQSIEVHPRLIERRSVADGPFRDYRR

N[C@H](Cc1c[nH]c2ccccc12)C(=O)O [D-tryptophan]
Kd [1]: 3100 ± 300 µM | Concentration giving decrease of FRET ratio relative to L-tryptophan ([1]; titration of FLIPW-CTY, higher concentrations than L-tryptophan): about 5 fold

N[C@@H](Cc1c[nH]c2ccc(O)cc12)C(=O)O [L-5-hydroxy-tryptophan]
Kd [1]: 6000 ± 800 µM

Cc1ccc2[nH]cc(C[C@H](N)C(=O)O)c2c1 [L-5-methyl-tryptophan]
Kd [1]: 60 ± 10 µM

N[C@@H](Cc1c[nH]c2ccccc12)C(=O)O [L-tryptophan]
Tryptophan uptake affinity (LAT2): 58 µM | Tryptophan uptake affinity (human TAT1): 450 µM | affinity [2]: micromolar affinity | Kd [3]: 210 ± 20 µM | Kd [1]: 220 ± 20 µM | Kd [4]: 20 µM | effective KM for combined tryptophan uptake and metabolism (COS-7 cells [5]): in the micromolar range | apparent Kd relative to free TrpR [6]: about an order of magnitude | Km (COS-7 cells [7]): 0.88 ± 0.27 µM

O=c1[nH]cnc2nc[nH]c12 [hypoxanthine]
Kd [8]: 5.6 ± 0.7 µM | Kd of free PurR Arg190Gln compared with FLIPpur [9]: identical to that of free PurR Arg190Gln
